Experimental data taken from patent US12157741B2, “Macrocyclic inhibitors of DYRK1A” (DANA-FARBER CANCER INSTITUTE, INC., priority 2018, dated 2024).
Read-outs that look alike come from different tables or passages of the source.

Legend:
various enzymes [1] = molecular target: various enzymes (Homo sapiens, UniProt O14578); conditions: CIT; 1 uM
Method: (§1) Ambit profiling from Eurofins (formerly Discoverx) was conducted in accordance with the manufacturer's instructions.

various enzymes [2] = molecular target: T1, various enzymes (Homo sapiens, UniProt O75385); conditions: ULK1; 1 uM
T1 sequence (O75385 1-1050): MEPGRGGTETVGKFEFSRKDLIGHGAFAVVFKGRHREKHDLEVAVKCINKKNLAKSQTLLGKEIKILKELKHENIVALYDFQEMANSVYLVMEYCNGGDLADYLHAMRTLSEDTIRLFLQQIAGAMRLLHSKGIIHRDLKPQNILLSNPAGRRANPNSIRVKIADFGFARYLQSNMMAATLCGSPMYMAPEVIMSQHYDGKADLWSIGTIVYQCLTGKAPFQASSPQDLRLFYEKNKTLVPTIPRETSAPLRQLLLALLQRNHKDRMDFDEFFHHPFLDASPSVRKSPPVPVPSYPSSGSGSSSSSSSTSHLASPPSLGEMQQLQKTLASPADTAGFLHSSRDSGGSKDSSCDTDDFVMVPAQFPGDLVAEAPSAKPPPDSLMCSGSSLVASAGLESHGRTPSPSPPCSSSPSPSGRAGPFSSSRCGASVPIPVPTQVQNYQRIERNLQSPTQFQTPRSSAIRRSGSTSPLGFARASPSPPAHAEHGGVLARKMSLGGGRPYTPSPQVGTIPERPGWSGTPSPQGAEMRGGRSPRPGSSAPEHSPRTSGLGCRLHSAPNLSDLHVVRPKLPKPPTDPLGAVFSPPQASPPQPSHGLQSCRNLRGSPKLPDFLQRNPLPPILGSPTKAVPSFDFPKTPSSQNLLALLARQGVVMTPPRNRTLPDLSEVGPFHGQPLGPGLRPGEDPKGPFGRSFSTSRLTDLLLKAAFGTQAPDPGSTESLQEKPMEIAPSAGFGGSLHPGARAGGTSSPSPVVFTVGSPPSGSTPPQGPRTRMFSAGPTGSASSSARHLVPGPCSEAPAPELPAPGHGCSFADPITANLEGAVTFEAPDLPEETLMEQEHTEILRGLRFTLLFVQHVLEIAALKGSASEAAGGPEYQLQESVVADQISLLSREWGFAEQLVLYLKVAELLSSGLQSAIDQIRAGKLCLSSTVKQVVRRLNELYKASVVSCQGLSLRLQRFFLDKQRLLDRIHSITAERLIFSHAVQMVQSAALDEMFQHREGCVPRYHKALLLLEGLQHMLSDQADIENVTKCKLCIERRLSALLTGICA
Method: as §1

various enzymes [3] = molecular target: various enzymes (Homo sapiens, UniProt O94804); conditions: LOK; 1 uM
Method: as §1

various enzymes [4] = molecular target: various enzymes (Homo sapiens, UniProt P08581, M1250T)
Method: as §1

various enzymes [5] = molecular target: various enzymes (Homo sapiens, UniProt P24941); conditions: CDK2; 1 uM
Method: as §1

various enzymes [6] = molecular target: various enzymes (Homo sapiens, UniProt P41240); conditions: CSK; 1 uM
Sequence of various enzymes (Homo sapiens, UniProt P41240) (P41240 whole entry): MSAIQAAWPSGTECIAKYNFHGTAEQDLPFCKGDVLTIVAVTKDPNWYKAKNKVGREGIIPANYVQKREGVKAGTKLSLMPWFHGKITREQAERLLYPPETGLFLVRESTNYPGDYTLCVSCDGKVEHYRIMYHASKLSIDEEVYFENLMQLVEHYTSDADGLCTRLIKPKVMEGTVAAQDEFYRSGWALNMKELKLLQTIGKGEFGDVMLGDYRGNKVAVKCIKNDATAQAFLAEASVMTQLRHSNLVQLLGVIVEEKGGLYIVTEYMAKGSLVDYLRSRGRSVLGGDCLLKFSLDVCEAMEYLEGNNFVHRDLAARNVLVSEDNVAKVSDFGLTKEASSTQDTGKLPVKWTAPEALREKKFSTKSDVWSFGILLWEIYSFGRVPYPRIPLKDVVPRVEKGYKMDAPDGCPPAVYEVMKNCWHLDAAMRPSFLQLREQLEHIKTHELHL
Method: as §1

various enzymes [7] = molecular target: various enzymes (Homo sapiens, UniProt P45984); conditions: JNK2; 1 uM
Sequence of various enzymes (Homo sapiens, UniProt P45984) (P45984 whole entry): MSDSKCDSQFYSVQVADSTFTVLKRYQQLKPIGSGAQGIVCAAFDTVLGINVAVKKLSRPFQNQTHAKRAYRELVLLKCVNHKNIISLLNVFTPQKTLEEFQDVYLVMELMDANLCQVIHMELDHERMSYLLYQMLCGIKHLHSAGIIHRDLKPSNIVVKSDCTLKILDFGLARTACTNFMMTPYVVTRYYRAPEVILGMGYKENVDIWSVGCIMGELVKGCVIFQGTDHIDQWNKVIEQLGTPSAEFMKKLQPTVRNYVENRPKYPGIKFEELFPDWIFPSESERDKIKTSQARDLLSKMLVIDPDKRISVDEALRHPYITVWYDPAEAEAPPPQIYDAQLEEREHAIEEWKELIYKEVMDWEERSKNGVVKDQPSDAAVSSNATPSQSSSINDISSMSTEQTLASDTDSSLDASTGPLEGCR
Method: as §1

various enzymes [8] = molecular target: various enzymes (Homo sapiens, UniProt P54756); conditions: EPHA5; 1 uM
Sequence of various enzymes (Homo sapiens, UniProt P54756) (P54756 25-1037): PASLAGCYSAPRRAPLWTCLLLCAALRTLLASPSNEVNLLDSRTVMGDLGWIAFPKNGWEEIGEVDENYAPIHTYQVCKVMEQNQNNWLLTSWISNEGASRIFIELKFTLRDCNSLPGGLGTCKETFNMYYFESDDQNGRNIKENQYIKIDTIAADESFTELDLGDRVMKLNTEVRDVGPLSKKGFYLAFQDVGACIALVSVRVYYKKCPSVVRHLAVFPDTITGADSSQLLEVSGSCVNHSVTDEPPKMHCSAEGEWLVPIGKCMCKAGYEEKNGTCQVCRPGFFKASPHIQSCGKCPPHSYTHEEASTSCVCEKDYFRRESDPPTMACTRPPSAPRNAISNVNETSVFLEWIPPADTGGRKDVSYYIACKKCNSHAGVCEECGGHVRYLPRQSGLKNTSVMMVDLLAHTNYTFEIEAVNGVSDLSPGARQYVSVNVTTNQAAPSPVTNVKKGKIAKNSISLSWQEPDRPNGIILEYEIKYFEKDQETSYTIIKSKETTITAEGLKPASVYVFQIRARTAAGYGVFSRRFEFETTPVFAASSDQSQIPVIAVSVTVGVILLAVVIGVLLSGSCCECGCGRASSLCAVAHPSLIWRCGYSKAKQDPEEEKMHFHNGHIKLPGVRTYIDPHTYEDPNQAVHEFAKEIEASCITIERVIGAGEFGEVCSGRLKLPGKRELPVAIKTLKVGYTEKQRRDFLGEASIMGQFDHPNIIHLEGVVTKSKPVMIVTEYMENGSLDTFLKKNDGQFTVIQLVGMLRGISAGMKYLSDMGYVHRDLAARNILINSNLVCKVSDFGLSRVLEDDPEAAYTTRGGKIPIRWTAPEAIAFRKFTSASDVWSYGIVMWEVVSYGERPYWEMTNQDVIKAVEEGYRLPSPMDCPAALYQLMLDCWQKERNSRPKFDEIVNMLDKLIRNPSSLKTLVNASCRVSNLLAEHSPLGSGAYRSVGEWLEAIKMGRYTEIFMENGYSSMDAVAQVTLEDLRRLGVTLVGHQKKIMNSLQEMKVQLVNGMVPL
Method: as §1

various enzymes [9] = molecular target: various enzymes (Homo sapiens, UniProt Q06187); conditions: BTK; 1 uM
Sequence of various enzymes (Homo sapiens, UniProt Q06187) (Q06187 whole entry): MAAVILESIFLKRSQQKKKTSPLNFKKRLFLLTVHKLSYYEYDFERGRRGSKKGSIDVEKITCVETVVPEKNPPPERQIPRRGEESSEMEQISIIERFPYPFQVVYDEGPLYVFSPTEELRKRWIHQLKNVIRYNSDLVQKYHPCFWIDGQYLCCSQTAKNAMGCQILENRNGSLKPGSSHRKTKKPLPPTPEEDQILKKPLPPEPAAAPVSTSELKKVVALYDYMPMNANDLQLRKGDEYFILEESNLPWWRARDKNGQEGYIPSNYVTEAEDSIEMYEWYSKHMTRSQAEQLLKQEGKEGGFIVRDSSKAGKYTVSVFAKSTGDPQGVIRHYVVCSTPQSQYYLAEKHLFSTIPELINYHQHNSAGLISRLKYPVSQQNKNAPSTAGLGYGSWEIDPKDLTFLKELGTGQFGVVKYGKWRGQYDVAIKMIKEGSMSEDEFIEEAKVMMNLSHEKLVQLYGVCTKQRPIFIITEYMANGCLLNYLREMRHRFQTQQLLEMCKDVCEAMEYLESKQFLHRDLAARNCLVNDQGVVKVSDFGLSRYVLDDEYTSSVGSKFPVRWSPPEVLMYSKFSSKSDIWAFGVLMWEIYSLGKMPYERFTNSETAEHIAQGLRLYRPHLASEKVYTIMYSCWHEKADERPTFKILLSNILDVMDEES
Method: as §1

various enzymes [10] = molecular target: various enzymes (Homo sapiens, UniProt Q13705); conditions: ACVR2B; 1 uM
Sequence of various enzymes (Homo sapiens, UniProt Q13705) (Q13705 19-512): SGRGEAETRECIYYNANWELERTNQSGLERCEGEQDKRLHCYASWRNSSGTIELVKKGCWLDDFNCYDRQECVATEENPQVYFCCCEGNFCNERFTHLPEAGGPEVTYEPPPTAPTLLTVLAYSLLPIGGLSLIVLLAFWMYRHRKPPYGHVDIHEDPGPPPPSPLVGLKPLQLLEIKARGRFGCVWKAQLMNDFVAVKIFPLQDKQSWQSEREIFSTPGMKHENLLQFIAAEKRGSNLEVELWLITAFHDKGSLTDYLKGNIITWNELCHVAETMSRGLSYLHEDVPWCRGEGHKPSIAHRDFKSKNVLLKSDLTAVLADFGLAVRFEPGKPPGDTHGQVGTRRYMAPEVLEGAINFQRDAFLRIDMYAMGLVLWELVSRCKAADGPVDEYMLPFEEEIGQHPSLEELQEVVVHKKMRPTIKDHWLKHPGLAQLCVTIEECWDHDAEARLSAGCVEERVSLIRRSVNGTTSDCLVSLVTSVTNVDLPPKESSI
Method: as §1

various enzymes [11] = molecular target: various enzymes (Homo sapiens, UniProt Q16584); conditions: MLK3; 1 uM
Sequence of various enzymes (Homo sapiens, UniProt Q16584) (Q16584 whole entry): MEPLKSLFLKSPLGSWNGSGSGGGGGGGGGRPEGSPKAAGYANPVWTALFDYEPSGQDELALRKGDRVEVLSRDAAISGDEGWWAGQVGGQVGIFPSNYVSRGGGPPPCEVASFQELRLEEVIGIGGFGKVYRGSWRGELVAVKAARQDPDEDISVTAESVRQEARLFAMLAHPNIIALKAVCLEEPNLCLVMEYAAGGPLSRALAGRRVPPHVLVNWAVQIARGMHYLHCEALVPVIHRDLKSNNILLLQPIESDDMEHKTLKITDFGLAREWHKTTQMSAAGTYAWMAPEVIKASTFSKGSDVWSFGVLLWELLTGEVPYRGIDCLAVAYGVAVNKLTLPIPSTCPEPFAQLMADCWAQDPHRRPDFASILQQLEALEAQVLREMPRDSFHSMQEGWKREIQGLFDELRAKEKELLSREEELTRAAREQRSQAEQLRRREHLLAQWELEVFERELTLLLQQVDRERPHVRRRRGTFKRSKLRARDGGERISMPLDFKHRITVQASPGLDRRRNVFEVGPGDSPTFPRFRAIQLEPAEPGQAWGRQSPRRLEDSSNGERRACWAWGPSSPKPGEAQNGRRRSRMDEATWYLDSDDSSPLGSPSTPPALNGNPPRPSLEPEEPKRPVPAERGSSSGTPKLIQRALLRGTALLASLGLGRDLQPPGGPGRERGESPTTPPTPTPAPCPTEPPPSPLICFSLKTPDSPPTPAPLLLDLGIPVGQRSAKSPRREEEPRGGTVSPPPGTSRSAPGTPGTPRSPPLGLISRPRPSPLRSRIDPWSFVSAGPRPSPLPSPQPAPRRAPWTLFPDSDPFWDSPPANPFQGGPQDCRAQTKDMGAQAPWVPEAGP
Method: as §1

various enzymes [12] = molecular target: T2, various enzymes (Homo sapiens, UniProt Q99640); conditions: PKMYT1; 1 uM
T2 sequence (Q99640 1-499): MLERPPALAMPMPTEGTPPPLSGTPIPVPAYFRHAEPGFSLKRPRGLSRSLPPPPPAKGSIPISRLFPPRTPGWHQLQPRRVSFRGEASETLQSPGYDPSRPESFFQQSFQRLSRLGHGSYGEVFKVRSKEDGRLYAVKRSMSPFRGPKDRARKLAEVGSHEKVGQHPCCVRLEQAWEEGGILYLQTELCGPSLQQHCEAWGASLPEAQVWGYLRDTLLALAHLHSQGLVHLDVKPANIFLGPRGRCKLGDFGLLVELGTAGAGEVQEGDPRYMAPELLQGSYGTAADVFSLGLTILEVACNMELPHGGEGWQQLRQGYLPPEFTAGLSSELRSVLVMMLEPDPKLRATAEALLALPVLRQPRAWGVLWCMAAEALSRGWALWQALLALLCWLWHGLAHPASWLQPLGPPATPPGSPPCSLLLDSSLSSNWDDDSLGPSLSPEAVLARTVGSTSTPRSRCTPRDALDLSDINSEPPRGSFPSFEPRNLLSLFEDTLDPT
Method: as §1

various enzymes [13] = molecular target: various enzymes (Homo sapiens, UniProt Q9NYY3); conditions: PLK2; 1 uM
Sequence of various enzymes (Homo sapiens, UniProt Q9NYY3) (Q9NYY3 whole entry): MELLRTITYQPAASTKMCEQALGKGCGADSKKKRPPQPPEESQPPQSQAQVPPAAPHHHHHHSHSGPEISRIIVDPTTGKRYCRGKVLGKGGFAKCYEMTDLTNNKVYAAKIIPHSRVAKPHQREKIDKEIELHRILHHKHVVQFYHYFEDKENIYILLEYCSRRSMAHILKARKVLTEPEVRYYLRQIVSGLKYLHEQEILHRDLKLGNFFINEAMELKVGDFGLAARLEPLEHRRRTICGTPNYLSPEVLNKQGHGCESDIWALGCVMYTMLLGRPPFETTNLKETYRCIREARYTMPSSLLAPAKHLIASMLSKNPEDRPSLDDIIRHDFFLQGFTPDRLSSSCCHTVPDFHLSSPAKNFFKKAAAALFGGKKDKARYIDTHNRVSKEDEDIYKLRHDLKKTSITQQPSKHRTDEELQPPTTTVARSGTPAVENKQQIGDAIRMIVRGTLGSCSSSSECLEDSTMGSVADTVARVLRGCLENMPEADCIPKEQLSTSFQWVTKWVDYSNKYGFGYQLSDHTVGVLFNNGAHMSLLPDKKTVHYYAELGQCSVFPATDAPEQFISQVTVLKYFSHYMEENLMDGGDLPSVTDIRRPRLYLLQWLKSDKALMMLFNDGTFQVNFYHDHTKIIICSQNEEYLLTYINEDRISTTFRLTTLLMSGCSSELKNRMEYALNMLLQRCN
Method: as §1

various enzymes [14] = molecular target: various enzymes (Homo sapiens, UniProt Q9Y6M4); conditions: CSNK1G3; 1 uM
Sequence of various enzymes (Homo sapiens, UniProt Q9Y6M4) (Q9Y6M4 whole entry): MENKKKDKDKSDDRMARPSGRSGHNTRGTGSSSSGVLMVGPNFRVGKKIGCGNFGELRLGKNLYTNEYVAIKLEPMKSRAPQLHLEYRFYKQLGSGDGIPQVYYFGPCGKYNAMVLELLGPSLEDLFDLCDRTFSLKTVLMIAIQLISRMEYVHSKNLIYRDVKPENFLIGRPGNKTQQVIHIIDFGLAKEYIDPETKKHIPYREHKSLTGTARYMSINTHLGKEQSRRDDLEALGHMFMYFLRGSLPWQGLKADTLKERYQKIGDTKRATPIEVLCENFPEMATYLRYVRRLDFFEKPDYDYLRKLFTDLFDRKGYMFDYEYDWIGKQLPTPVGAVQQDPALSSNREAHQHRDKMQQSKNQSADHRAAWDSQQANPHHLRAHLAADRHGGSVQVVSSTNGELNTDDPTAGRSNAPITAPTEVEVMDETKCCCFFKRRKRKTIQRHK
Method: as §1

SMILES	Ambit profiling (various enzymes [1])	Ambit profiling (various enzymes [2])	Ambit profiling (various enzymes [3])	Ambit profiling (various enzymes [4]; MET(M1250T), 1 uM)	Ambit profiling (various enzymes [5])	Ambit profiling (various enzymes [6])	Ambit profiling (various enzymes [7])	Ambit profiling (various enzymes [8])	Ambit profiling (various enzymes [9])	Ambit profiling (various enzymes [10])	Ambit profiling (various enzymes [11])	Ambit profiling (various enzymes [12])	Ambit profiling (various enzymes [13])	Ambit profiling (various enzymes [14])	Ambit profiling (various enzymes [4])
CN1Cc2nn(C)cc2-c2cnc3[nH]cc(c3c2)-c2cnn(c2)CCCC1=O [Compound 41, (Z)-31,5-dimethyl-11H,21H,31H-5-aza-2(3,5)-pyrrolo[2,3-b]pyridina-1(4,1),3(4,3)-dipyrazolacyclononaphan-6-one]	99	22	74	20	55	63	1.1	58	61	65	69	64	90	100	–
CN1Cc2nn(C)c(C#N)c2-c2cnc3[nH]cc(c3c2)-c2cn(nc2C(F)(F)F)CCCC1=O [Compound 48, (Z)-31,5-dimethyl-6-oxo-13-(trifluoromethyl)-11H,21H,31H-5-aza-2(3,5)-pyrrolo[2,3-b]pyridina-1(4,1),3(4,3)-dipyrazolacyclononaphane-35-carbonitrile]	74	100	52	–	91	95	8.1	97	97	98	80	77	100	98	75
